Experimental data reported in patent US20160375006A1, “USES OF PARALOG-SELECTIVE INHIBITORS OF GSK3 KINASES” (priority 2012, published 2016).
Read-outs that look alike come from different tables or passages of the source.

Tests used:
RSK3 = molecular target: T1, RSK3 (Homo sapiens, UniProt Q15349); assay: Carna kinase panel; assay type: biochemical
T1 construct: purchased Carna Biosciences
Procedure: (§1) This was completed utilizing one of two assays depending on the kinase being examined.
(§2) A solution of IMAP binding reagent (IMAP Screening Express kit; Molecular Devices) (60 μL) was added to each well and incubated for 30 minutes.
(§3) A solution of termination buffer (QuickScout Screening assist MSA; Carna Biosciences) (60 μL) was added to each well. The entire reaction mixture was then applied to a LabChip3000 system (Caliper Life Science) and the product and substrate peptide peaks were separated and quantified.

CDK2/CycA2 = CDK2/CycA2 (Homo sapiens, UniProt P24941)
Procedure: as §1, §2, §3
(§4) The assay utilized was identical to that of the single point inhibitory activity determination (MSA) but run in dose response. […] A solution of termination buffer (QuickScout Screening assist MSA; Carna Biosciences) (60 μL) was added to each well. The entire reaction mixture was then applied to a LabChip3000 system (Caliper Life Science) and the product and substrate peptide peaks were separated and quantified.

CDK2/CycE1 = CDK2/CycE1 (Homo sapiens, UniProt P24941)
Procedure: as §1, §2, §3, §4

ROS = ROS (Homo sapiens, UniProt P08922)
Procedure: as §1, §2, §3, §4

CDC2/CycB1 = CDC2/CycB1 (Homo sapiens, UniProt P06493)
Procedure: as §1, §2, §3, §4

HGK = HGK (Homo sapiens, UniProt O95819)
Procedure: as §2, §3, §4

RAF1_Cascade = RAF1_Cascade (Homo sapiens, UniProt P04049)
Procedure: as §1, §2, §3

MAP2K3_Cascade = MAP2K3_Cascade (Homo sapiens, UniProt P46734)
Procedure: as §1, §2, §3, §4

TAK1-TAB1_Cascade = TAK1-TAB1_Cascade (Homo sapiens, UniProt O43318)
Procedure: as §1, §2, §3, §4

MAP2K6_Cascade = MAP2K6_Cascade (Homo sapiens, UniProt P52564)
Procedure: as §1, §2, §3, §4

YES(T348I) = YES(T348I) (Homo sapiens, UniProt P07947, T348I)
Procedure: as §1, §2, §3, §4

FER = FER (Homo sapiens, UniProt P16591)
Procedure: as §1, §2, §3

ABL(T315I) = ABL(T315I) (Homo sapiens, UniProt P00519, T315I)
Procedure: as §1, §2, §3, §4

FES = FES (Homo sapiens, UniProt P07332)
Procedure: as §1, §2, §3, §4

PIM2 = PIM2 (Homo sapiens, UniProt Q9P1W9)
Procedure: as §1, §2, §3, §4

MST4 = MST4 (Homo sapiens, UniProt Q9P289)
Procedure: as §1, §2, §3, §4

HIPK2 = HIPK2 (Homo sapiens, UniProt Q9H2X6)
Procedure: as §1, §2, §3, §4

MUSK = MUSK (Homo sapiens, UniProt O15146)
Procedure: as §1, §2, §3, §4

NEK7 = NEK7 (Homo sapiens, UniProt Q8TDX7)
Procedure: as §1, §2, §3, §4

MOS_Cascade = MOS_Cascade (Homo sapiens, UniProt P00540)
Procedure: as §1, §2, §3, §4

SGK3 = SGK3 (Homo sapiens, UniProt Q96BR1)
Procedure: as §1, §2, §3, §4

CK1γ3 = CK1γ3 (Homo sapiens, UniProt Q9Y6M4)
Procedure: as §1, §2, §3, §4

CaMK1δ = CaMK1δ (Homo sapiens, UniProt Q8IU85)
Procedure: as §1, §2, §3, §4

p38γ = p38γ (Homo sapiens, UniProt P53778)
Procedure: as §1, §2, §3

EGFR(T790M/L858R) = EGFR(T790M/L858R) (Homo sapiens, UniProt P00533, L858R/T790M)
Procedure: as §1, §2, §3, §4

EGFR(L858R) = EGFR(L858R) (Homo sapiens, UniProt P00533, L858R)
Procedure: as §1, §2, §3, §4

PKCι = PKCι (Homo sapiens, UniProt P41743)
Source text: as §1
The assay utilized was identical to that of the single point inhibitory activity determination (MSA) but run in dose response.

ACK = ACK (Homo sapiens, UniProt Q07912)
Procedure: as §1, §2, §3, §4

PKCε = PKCε (Homo sapiens, UniProt Q02156)
Procedure: as §1, §2, §3, §4

AKT2 = AKT2 (Homo sapiens, UniProt P31751)
Procedure: as §1, §2, §3, §4

KDR = KDR (Homo sapiens, UniProt P35968)
Procedure: as §1, §2, §3, §4

RET(G691S) = RET(G691S) (Homo sapiens, UniProt P07949, G691S)
Procedure: as §1, §2, §3

TAOK2 = TAOK2 (Homo sapiens, UniProt Q9UL54)
Procedure: as §1, §2, §3

TSSK1 = TSSK1 (Homo sapiens, UniProt Q9BXA7)
Procedure: as §1, §2, §3, §4

CDK4/CycD3 = CDK4/CycD3 (Homo sapiens, UniProt P11802)
Procedure: as §1, §2, §3

NEK1 = NEK1 (Homo sapiens, UniProt Q96PY6)
Procedure: as §1, §2, §3

MGC42105 = MGC42105 (Homo sapiens, UniProt Q8IY84)
Procedure: as §1, §2, §3, §4

CK1γ2 = CK1γ2 (Homo sapiens, UniProt P78368)
Procedure: as §1, §2, §3, §4

MSK1 = MSK1 (Homo sapiens, UniProt O75582)
Procedure: as §1, §2, §3

Sequence of CK1γ2 (P78368 whole entry): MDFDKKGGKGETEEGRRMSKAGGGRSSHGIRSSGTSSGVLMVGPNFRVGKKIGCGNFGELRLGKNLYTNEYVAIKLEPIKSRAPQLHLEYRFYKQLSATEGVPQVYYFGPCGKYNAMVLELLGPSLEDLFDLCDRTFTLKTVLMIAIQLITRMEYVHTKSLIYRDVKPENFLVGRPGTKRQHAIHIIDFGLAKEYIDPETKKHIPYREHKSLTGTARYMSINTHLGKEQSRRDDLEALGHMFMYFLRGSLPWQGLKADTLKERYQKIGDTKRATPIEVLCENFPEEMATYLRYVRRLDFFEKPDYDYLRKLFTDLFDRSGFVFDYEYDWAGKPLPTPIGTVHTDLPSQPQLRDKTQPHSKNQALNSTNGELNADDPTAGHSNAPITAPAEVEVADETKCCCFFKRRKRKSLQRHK
T1 sequence (Q15349 whole entry): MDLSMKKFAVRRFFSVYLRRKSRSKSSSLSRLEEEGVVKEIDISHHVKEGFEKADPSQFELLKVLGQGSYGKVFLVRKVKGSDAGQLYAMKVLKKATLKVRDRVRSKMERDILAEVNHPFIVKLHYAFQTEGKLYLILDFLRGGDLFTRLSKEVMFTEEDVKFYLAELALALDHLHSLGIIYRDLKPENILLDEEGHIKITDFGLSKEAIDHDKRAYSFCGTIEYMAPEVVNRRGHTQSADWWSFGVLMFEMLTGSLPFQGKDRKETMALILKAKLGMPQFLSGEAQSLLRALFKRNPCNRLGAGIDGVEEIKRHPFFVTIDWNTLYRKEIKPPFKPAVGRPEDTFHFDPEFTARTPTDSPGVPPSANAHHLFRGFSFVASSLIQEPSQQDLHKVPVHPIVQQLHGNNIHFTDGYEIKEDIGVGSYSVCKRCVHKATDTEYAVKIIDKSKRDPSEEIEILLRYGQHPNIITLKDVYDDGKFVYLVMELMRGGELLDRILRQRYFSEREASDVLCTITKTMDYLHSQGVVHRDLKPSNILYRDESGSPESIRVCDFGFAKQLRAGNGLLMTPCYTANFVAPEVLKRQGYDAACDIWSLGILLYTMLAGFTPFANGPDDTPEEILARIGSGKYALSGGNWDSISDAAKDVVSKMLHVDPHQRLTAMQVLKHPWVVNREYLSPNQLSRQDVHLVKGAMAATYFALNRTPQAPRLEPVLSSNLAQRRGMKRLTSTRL
Sequence of CDC2/CycB1 (P06493 whole entry): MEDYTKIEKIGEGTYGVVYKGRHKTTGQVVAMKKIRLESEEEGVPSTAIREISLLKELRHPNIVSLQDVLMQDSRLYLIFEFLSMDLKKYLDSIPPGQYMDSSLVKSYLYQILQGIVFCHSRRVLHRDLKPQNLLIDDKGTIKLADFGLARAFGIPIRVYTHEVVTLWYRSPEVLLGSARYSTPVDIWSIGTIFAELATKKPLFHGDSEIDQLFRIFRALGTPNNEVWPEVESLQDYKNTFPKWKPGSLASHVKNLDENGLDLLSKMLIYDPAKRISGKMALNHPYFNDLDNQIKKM
Sequence of CDC2/CycB1 (P14635 whole entry partner): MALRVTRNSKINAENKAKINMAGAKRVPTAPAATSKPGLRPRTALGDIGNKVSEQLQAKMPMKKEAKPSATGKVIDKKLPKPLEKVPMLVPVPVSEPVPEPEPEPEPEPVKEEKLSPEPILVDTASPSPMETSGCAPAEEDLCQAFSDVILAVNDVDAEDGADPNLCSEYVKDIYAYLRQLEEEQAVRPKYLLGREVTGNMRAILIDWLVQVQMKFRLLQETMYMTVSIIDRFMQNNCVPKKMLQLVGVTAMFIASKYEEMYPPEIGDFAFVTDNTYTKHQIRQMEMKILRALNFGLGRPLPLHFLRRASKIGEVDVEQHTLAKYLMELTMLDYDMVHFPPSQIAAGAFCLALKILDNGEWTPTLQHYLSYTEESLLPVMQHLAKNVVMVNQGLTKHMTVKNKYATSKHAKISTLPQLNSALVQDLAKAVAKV
Sequence of CK1γ3 (Q9Y6M4 whole entry): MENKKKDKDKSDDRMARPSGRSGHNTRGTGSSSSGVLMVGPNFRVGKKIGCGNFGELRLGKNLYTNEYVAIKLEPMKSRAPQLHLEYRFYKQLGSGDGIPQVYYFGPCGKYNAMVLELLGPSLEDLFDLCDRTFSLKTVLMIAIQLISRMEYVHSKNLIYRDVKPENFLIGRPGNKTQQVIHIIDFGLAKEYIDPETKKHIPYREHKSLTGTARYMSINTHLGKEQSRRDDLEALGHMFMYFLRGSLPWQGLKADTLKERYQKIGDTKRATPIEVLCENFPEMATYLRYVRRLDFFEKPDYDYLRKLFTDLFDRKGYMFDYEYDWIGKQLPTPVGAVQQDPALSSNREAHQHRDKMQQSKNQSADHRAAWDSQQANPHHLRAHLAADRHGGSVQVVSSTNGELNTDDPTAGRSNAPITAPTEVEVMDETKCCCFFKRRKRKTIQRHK
Sequence of KDR (P35968 20-1356): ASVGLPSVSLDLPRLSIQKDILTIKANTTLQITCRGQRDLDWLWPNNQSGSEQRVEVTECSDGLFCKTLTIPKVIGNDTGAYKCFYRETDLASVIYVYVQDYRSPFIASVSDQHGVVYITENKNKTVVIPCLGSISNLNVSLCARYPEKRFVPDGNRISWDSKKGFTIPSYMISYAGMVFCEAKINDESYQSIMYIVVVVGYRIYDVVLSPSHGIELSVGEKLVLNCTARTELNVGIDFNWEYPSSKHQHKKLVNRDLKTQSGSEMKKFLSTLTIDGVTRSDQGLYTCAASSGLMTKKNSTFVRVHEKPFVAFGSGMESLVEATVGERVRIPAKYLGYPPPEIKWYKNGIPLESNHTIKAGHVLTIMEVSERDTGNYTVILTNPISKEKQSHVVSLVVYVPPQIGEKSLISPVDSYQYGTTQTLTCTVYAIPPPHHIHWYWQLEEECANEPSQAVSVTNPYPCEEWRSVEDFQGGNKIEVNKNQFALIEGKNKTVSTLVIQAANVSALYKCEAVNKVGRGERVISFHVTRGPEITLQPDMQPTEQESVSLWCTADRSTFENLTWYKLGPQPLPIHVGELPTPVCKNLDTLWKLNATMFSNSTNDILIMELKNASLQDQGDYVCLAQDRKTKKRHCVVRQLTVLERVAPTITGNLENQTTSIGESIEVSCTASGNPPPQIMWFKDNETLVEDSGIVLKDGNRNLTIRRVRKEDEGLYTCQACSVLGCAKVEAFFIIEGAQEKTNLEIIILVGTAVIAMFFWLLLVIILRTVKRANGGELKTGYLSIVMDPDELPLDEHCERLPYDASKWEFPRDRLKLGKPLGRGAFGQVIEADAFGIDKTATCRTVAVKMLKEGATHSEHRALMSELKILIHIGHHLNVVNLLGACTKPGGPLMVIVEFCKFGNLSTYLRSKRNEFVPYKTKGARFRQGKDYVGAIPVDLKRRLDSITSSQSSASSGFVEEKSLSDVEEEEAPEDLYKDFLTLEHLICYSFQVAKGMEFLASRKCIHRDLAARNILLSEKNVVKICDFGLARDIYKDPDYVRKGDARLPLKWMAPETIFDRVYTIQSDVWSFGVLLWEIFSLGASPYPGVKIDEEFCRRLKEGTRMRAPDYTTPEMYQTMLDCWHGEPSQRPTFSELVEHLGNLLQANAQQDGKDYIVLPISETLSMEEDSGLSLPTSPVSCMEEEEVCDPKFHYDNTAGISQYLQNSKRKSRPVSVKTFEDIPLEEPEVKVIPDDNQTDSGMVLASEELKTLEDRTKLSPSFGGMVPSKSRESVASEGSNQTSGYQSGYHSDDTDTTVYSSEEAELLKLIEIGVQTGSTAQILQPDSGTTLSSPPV
Sequence of PKCε (Q02156 whole entry): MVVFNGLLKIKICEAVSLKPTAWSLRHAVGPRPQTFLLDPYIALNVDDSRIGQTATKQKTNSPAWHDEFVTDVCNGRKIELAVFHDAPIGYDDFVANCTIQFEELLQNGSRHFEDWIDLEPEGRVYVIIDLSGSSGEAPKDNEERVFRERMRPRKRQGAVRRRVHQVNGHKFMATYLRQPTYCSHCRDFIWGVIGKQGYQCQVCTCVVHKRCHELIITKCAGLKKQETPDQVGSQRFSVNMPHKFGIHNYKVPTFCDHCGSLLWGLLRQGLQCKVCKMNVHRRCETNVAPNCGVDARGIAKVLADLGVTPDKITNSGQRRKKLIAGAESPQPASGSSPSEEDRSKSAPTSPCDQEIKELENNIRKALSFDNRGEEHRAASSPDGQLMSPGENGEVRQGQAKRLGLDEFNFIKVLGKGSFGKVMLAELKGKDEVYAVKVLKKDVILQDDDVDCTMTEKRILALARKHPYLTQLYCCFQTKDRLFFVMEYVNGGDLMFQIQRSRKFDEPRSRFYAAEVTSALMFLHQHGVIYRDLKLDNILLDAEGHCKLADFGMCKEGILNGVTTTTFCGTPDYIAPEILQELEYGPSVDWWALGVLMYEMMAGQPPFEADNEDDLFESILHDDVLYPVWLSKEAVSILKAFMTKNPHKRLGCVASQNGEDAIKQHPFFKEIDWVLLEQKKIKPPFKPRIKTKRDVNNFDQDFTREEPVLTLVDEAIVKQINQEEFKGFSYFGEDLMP
Sequence of RAF1_Cascade (P04049 whole entry): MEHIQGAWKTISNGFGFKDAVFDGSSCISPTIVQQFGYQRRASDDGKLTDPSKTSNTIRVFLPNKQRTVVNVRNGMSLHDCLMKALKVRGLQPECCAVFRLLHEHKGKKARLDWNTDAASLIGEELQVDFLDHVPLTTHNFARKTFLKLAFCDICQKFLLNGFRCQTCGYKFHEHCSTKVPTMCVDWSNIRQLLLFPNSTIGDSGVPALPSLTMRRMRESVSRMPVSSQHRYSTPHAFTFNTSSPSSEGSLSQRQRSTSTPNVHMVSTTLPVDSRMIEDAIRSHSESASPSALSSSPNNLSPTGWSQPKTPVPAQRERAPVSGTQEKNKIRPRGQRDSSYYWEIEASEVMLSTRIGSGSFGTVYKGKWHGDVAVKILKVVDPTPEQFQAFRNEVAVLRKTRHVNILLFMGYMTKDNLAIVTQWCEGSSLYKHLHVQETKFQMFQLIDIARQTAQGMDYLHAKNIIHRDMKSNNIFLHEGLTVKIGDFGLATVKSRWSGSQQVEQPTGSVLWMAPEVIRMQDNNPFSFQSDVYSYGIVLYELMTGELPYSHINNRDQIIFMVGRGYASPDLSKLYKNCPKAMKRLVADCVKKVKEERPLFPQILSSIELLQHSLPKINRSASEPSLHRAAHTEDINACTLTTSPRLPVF

Compound: CC[C@@]1(c2ccccc2)C2=C(CC(C)(C)CC2=O)Nc2n[nH]cc21 [BRD0705]
- % Inhibition at 10 μM (RSK3): −7.9%
- % Inhibition at 10 μM (CDK2/CycA2; CDK2/CycA2): 65.3%
- IC50 (CDK2/CycA2; read-out: IC50 CDK2/CycA2): 6.87 µM
- % Inhibition at 10 μM (CDK2/CycE1; CDK2/CycE1): 53.4%
- IC50 (CDK2/CycE1; read-out: IC50 CDK2/CycE1): 9.43 µM
- % Inhibition at 10 μM (ROS): 31.3%
- % Inhibition at 10 μM (CDC2/CycB1): 17.2%
- % Inhibition at 10 μM (HGK): 14.9%
- % Inhibition at 10 μM (RAF1_Cascade): 7.5%
- % Inhibition at 10 μM (MAP2K3_Cascade): 6.7%
- % Inhibition at 10 μM (TAK1-TAB1_Cascade): 5.0%
- % Inhibition at 10 μM (MAP2K6_Cascade): 4.2%
- % Inhibition at 10 μM (YES(T348I)): 3.3%
- % Inhibition at 10 μM (FER): 1.7%
- % Inhibition at 10 μM (ABL(T315I)): 0.7%
- % Inhibition at 10 μM (FES): 0.6%
- % Inhibition at 10 μM (PIM2): 0.5%
- % Inhibition at 10 μM (MST4): −0.4%
- % Inhibition at 10 μM (HIPK2): −0.5%
- % Inhibition at 10 μM (MUSK): −0.6%
- % Inhibition at 10 μM (NEK7): −1.0%
- % Inhibition at 10 μM (MOS_Cascade): −1.0%
- % Inhibition at 10 μM (SGK3): −1.8%
- % Inhibition at 10 μM (CK1γ3): −2.1%
- % Inhibition at 10 μM (CaMK1δ): −3.0%
- % Inhibition at 10 μM (p38γ): −3.4%
- % Inhibition at 10 μM (EGFR(T790M/L858R)): −4.0%
- % Inhibition at 10 μM (EGFR(L858R)): −4.0%
- % Inhibition at 10 μM (PKCι): −4.3%
- % Inhibition at 10 μM (ACK): −4.5%
- % Inhibition at 10 μM (PKCε): −4.5%
- % Inhibition at 10 μM (AKT2): −4.7%
- % Inhibition at 10 μM (KDR): −4.8%
- % Inhibition at 10 μM (RET(G691S)): −5.6%
- % Inhibition at 10 μM (TAOK2): −5.8%
- % Inhibition at 10 μM (TSSK1): −8.5%
- % Inhibition at 10 μM (CDK4/CycD3): −9.1%
- % Inhibition at 10 μM (NEK1): −9.6%
- % Inhibition at 10 μM (MGC42105): −9.9%
- % Inhibition at 10 μM (CK1γ2): −11.8%
- % Inhibition at 10 μM (MSK1): −27.1%

Compound: CC(C)(C)Cc1[nH]nc2c1[C@](C)(c1ccccc1)C1=C(CC(C)(C)CC1=O)N2 [BRD3731]
- % Inhibition 10 μM (RSK3; 10 μM): 35.5%
- IC50 (CDK2/CycA2; CDK2/CycA2): > 10 µM
- % Inhibition 10 μM (CDK2/CycA2; CDK2/CycA2, 10 μM): 36.3%
- Fold Selectivity (CDK2/CycA2; IC50 CDK2/CycA2 / IC50 GSK3β): >370 fold
- IC50 (CDK2/CycE1; CDK2/CycE1): 8.8 µM
- % Inhibition 10 μM (CDK2/CycE1; CDK2/CycE1, 10 μM): 42.6%
- Fold Selectivity (CDK2/CycE1; IC50 CDK2/CycE1 / IC50 GSK3β): 326.9 fold
- % Inhibition 10 μM (ROS; 10 μM): 0.9%
- % Inhibition 10 μM (CDC2/CycB1; 10 μM): 27.8%
- % Inhibition 10 μM (HGK; 10 μM): −3.8%
- % Inhibition 10 μM (RAF1_Cascade; 10 μM): −6.6%
- % Inhibition 10 μM (MAP2K3_Cascade; 10 μM): −8.8%
- % Inhibition 10 μM (TAK1-TAB1_Cascade; 10 μM): 1.7%
- % Inhibition 10 μM (MAP2K6_Cascade; 10 μM): 3.3%
- % Inhibition 10 μM (YES(T348I); 10 μM): −2.3%
- % Inhibition 10 μM (FER; 10 μM): 6.4%
- % Inhibition 10 μM (ABL(T315I); 10 μM): −2.4%
- % Inhibition 10 μM (FES; 10 μM): 0.4%
- % Inhibition 10 μM (PIM2; 10 μM): 0.8%
- % Inhibition 10 μM (MST4; 10 μM): 6.4%
- % Inhibition 10 μM (HIPK2; 10 μM): 3.2%
- % Inhibition 10 μM (MUSK; 10 μM): −7.9%
- % Inhibition 10 μM (NEK7; 10 μM): −3.2%
- % Inhibition 10 μM (MOS_Cascade; 10 μM): −9.5%
- % Inhibition 10 μM (SGK3; 10 μM): −5.2%
- % Inhibition 10 μM (CK1γ3; 10 μM): −2.1%
- % Inhibition 10 μM (CaMK1δ; 10 μM): 16.7%
- % Inhibition 10 μM (p38γ; 10 μM): −2.6%
- % Inhibition 10 μM (EGFR(T790M/L858R); 10 μM): −4.0%
- % Inhibition 10 μM (EGFR(L858R); 10 μM): −1.2%
- % Inhibition 10 μM (PKCι; 10 μM): 2.5%
- % Inhibition 10 μM (ACK; 10 μM): −1.3%
- % Inhibition 10 μM (PKCε; 10 μM): 1.8%
- % Inhibition 10 μM (AKT2; 10 μM): −8.4%
- % Inhibition 10 μM (KDR; 10 μM): 7.1%
- % Inhibition 10 μM (RET(G691S); 10 μM): −2.3%
- % Inhibition 10 μM (TAOK2; 10 μM): 2.2%
- % Inhibition 10 μM (TSSK1; 10 μM): −0.8%
- % Inhibition 10 μM (CDK4/CycD3; 10 μM): 18.1%
- % Inhibition 10 μM (NEK1; 10 μM): −0.1%
- % Inhibition 10 μM (MGC42105; 10 μM): −2.4%
- % Inhibition 10 μM (CK1γ2; 10 μM): 3.6%
- % Inhibition 10 μM (MSK1; 10 μM): 7.4%
